Reference: PubChem BioAssay AID248 (DTP/NCI, 2004)
Inconclusive results and toxic doses are left out. Rule as the data show it: active = T/C of 150% or more; inactive = T/C below 125%.

System: L1210 leukemia ip in BDF1 mice, survival T/C
Assay: NCI In Vivo Anticancer Drug Screen. Data for tumor model L1210 Leukemia (intraperitoneal) in B6D2F1 (BDF1) mice
Conditions: endpoint: mean survival time, higher = longer survival
How it was run: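 Antitumor effect is assessed in tumor-bearing animals. Survival in the compound arm is compared with a vehicle-dosed control arm and expressed as their quotient.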

[1] = dose: 25.0 mg/kg/injection, schedule: Q01DX009 (ip), vehicle: Klucel (hydroxypropylcellulose) (HPC)
[2] = dose: 50.0 mg/kg/injection, schedule: Q01DX009 (ip), vehicle: Klucel (hydroxypropylcellulose) (HPC)
[3] = dose: 100.0 mg/kg/injection, schedule: Q01DX009 (ip), vehicle: Klucel (hydroxypropylcellulose) (HPC)
[4] = dose: 200.0 mg/kg/injection, schedule: Q01DX009 (ip), vehicle: Klucel (hydroxypropylcellulose) (HPC)
[5] = dose: 100.0 mg/kg/injection, schedule: Q01DX001 (ip), vehicle: carboxymethylcellulose (CMC)
[6] = dose: 200.0 mg/kg/injection, schedule: Q01DX001 (ip), vehicle: carboxymethylcellulose (CMC)
[7] = dose: 400.0 mg/kg/injection, schedule: Q01DX001 (ip), vehicle: carboxymethylcellulose (CMC)
[8] = dose: 50.0 mg/kg/injection, schedule: Q01DX001 (ip), vehicle: saline
[9] = dose: 100.0 mg/kg/injection, schedule: Q01DX001 (ip), vehicle: saline
[10] = dose: 200.0 mg/kg/injection, schedule: Q01DX001 (ip), vehicle: saline
[11] = dose: 100.0 mg/kg/injection, schedule: Q01DX009 (ip), vehicle: saline with Tween-80
[12] = dose: 100.0 mg/kg/injection, schedule: Q01DX001 (ip), vehicle: Klucel (hydroxypropylcellulose) (HPC)

Measured: T/C

CC[n+]1csc2ccccc21
inactive: dose: 75.0 mg/kg/injection, schedule: Q01DX001 (ip), vehicle: saline 102 % of control | dose: 150.0 mg/kg/injection, schedule: Q01DX001 (ip), vehicle: saline 105 % of control | dose: 300.0 mg/kg/injection, schedule: Q01DX001 (ip), vehicle: saline 97 % of control

O=C(/C=C/c1ccc([N+](=O)[O-])o1)c1cccc([N+](=O)[O-])c1
inactive: [1] 100 % of control | [2] 103 % of control

O=C1CC(C(F)(F)F)(C(F)(F)F)O1
inactive: dose: 100.0 mg/kg/injection, schedule: Q04DX002 (ip), vehicle: other 120 % of control | dose: 200.0 mg/kg/injection, schedule: Q04DX002 (ip), vehicle: other 102 % of control | dose: 400.0 mg/kg/injection, schedule: Q04DX002 (ip), vehicle: other 102 % of control

O=C(O)C1=CCCc2ccc3ccccc3c21
inactive: dose: 75.0 mg/kg/injection, schedule: Q04DX003 (ip), vehicle: saline 100 % of control | [3] 96 % of control | dose: 150.0 mg/kg/injection, schedule: Q04DX003 (ip), vehicle: saline 100 % of control | [4] 102 % of control | dose: 300.0 mg/kg/injection, schedule: Q04DX003 (ip), vehicle: saline 97 % of control

O=C(CCCC(=O)N=Nc1c(Cl)c(O)c2ccccc2c1O)N=Nc1c(Cl)c(O)c2ccccc2c1O
inactive: [5] 118 % of control | [6] 101 % of control | [7] 103 % of control

O=c1[nH]c2c(cnn2-c2ccccc2)c(=O)n1O
inactive: [8] 97 % of control | [9] 100 % of control

CCOC1C=CC(O)C(CO)O1 (stereo unspecified)
inactive: [9] 101 % of control | [10] 98 % of control | dose: 400.0 mg/kg/injection, schedule: Q01DX001 (ip), vehicle: saline 95 % of control

COc1ccccc1-n1c(=O)c(N=Nc2ccccc2C)c(O)n(-c2ccccc2C)c1=S
inactive: dose: 37.5 mg/kg/injection, schedule: Q01DX001 (ip), vehicle: Klucel (hydroxypropylcellulose) (HPC) 106 % of control | dose: 75.0 mg/kg/injection, schedule: Q01DX001 (ip), vehicle: Klucel (hydroxypropylcellulose) (HPC) 106 % of control | dose: 150.0 mg/kg/injection, schedule: Q01DX001 (ip), vehicle: Klucel (hydroxypropylcellulose) (HPC) 108 % of control

COC1OC(COC(c2ccccc2)(c2ccccc2)c2ccccc2)C(O)C(O)C1O (stereo unspecified)
inactive: [2] 89 % of control | [3] 93 % of control | [4] 89 % of control

COC(=O)c1cc(C)c(C(=O)OC)cc1C
inactive: dose: 100.0 mg/kg/injection, schedule: Q01DX009 (ip), vehicle: saline sonified 97 % of control | dose: 200.0 mg/kg/injection, schedule: Q01DX009 (ip), vehicle: saline sonified 91 % of control | dose: 400.0 mg/kg/injection, schedule: Q01DX009 (ip), vehicle: saline sonified 88 % of control

O=C(O)c1cccc2c1C(=O)c1c(O)cccc1C2=O
inactive: dose: 50.0 mg/kg/injection, schedule: Q04DX002 (ip), vehicle: Klucel (hydroxypropylcellulose) (HPC) 105 % of control | dose: 100.0 mg/kg/injection, schedule: Q04DX002 (ip), vehicle: Klucel (hydroxypropylcellulose) (HPC) 96 % of control | dose: 200.0 mg/kg/injection, schedule: Q04DX002 (ip), vehicle: Klucel (hydroxypropylcellulose) (HPC) 92 % of control

Cc1oc2ccc(NS(=O)(=O)c3ccccc3)cc2c1C(=O)O
inactive: dose: 25.0 mg/kg/injection, schedule: Q01DX009 (ip), vehicle: saline with Tween-80 101 % of control | dose: 50.0 mg/kg/injection, schedule: Q01DX009 (ip), vehicle: saline with Tween-80 107 % of control | [11] 101 % of control

O=C(Nc1ccccc1)Nc1ccc([N+](=O)[O-])cc1
inactive: [3] 91 % of control | dose: 100.0 mg/kg/injection, schedule: Q04DX003 (ip), vehicle: other 93 % of control | [4] 96 % of control | dose: 200.0 mg/kg/injection, schedule: Q04DX003 (ip), vehicle: other 100 % of control | dose: 400.0 mg/kg/injection, schedule: Q01DX009 (ip), vehicle: Klucel (hydroxypropylcellulose) (HPC) 86 % of control | dose: 400.0 mg/kg/injection, schedule: Q04DX003 (ip), vehicle: other 100 % of control

CCOc1cc(-c2ccc(OC)cc2)nc(N)n1
inactive: dose: 100.0 mg/kg/injection, schedule: Q04DX002 (ip), vehicle: saline with Tween-80 91 % of control | dose: 200.0 mg/kg/injection, schedule: Q04DX002 (ip), vehicle: saline with Tween-80 97 % of control | dose: 400.0 mg/kg/injection, schedule: Q04DX002 (ip), vehicle: saline with Tween-80 91 % of control

CC(C)(C)NNC(C)(C)C
inactive: dose: 9.38 mg/kg/injection, schedule: Q01DX001 (ip), vehicle: other 102 % of control | dose: 18.75 mg/kg/injection, schedule: Q01DX001 (ip), vehicle: other 96 % of control | dose: 37.5 mg/kg/injection, schedule: Q01DX001 (ip), vehicle: other 96 % of control

O=C(Nc1ccc(C(F)(F)F)cc1)Nc1cccc(Cl)c1
inactive: dose: 50.0 mg/kg/injection, schedule: Q01DX001 (ip), vehicle: carboxymethylcellulose (CMC) 98 % of control | [5] 101 % of control | [6] 93 % of control | [7] 95 % of control

CC(C)Oc1ccc(C(N)=S)c2ccccc12
inactive: [12] 105 % of control | dose: 200.0 mg/kg/injection, schedule: Q01DX001 (ip), vehicle: Klucel (hydroxypropylcellulose) (HPC) 109 % of control | dose: 400.0 mg/kg/injection, schedule: Q01DX001 (ip), vehicle: Klucel (hydroxypropylcellulose) (HPC) 102 % of control

C=CCN(N=O)C(N)=O
inactive: dose: 12.5 mg/kg/injection, schedule: Q01DX Z (ip), vehicle: methylcellulose (MC) 106 % of control | dose: 25.0 mg/kg/injection, schedule: Q01DX Z (ip), vehicle: methylcellulose (MC) 108 % of control | dose: 50.0 mg/kg/injection, schedule: Q01DX Z (ip), vehicle: methylcellulose (MC) 117 % of control

Nc1nc2nc(C(=O)O)cnc2c(=O)[nH]1
inactive: dose: 12.5 mg/kg/injection, schedule: Q04DX003 (ip), vehicle: saline 95 % of control | dose: 25.0 mg/kg/injection, schedule: Q04DX003 (ip), vehicle: saline 102 % of control

Nc1cccc(-c2nc3[nH]ncc3c(=O)[nH]2)c1
inactive: dose: 25.0 mg/kg/injection, schedule: Q01DX001 (ip), vehicle: Klucel (hydroxypropylcellulose) (HPC) 100 % of control | dose: 50.0 mg/kg/injection, schedule: Q01DX001 (ip), vehicle: Klucel (hydroxypropylcellulose) (HPC) 98 % of control | [12] 93 % of control

O=C(O)CO
inactive: [8] 94 % of control | [9] 97 % of control | [11] 107 % of control | [10] 108 % of control | dose: 200.0 mg/kg/injection, schedule: Q01DX009 (ip), vehicle: saline with Tween-80 100 % of control | dose: 400.0 mg/kg/injection, schedule: Q01DX009 (ip), vehicle: saline with Tween-80 93 % of control

O=C1C=CC(=O)N1CO (tested in a mixture with another compound)
inactive: dose: 100.0 mg/kg/injection, schedule: Q04DX003 (ip), vehicle: saline with Tween-80 97 % of control | dose: 200.0 mg/kg/injection, schedule: Q04DX003 (ip), vehicle: saline with Tween-80 92 % of control | dose: 400.0 mg/kg/injection, schedule: Q04DX003 (ip), vehicle: saline with Tween-80 91 % of control

CCCCCCCCCCCCCCCC(=O)N(CCCN)CCCN(CCCN)C(=O)CCCCCCCCCCCCCCC
inactive: dose: 100.0 mg/kg/injection, schedule: Q04DX003 (ip), vehicle: saline 98 % of control

COC(=O)C(N=Nc1ccc(C)cc1)C(C)=O (stereo unspecified)
inactive: [1] 97 % of control | [2] 94 % of control | [3] 89 % of control
